Data from ChEMBL document CHEMBL4649989, “Design of a Chemical Probe for the Bromodomain and Plant Homeodomain Finger-Containing (BRPF) Family of Proteins” (J Med Chem, 2017).
“And” between values parts separate entries of the source, which are not always exact repeats. Equal values may be shown once.

Assays:
[1] = target: Transcription initiation factor TFIID subunit 1-like (Homo sapiens) (UniProt Q8IZX4); details: Compound concentration 10.0 uM
[2] = target: Bromodomain-containing protein 1 (Homo sapiens) (UniProt O95696); details: Compound concentration 10.0 uM
[3] = target: Chromatin remodeling regulator CECR2 (Homo sapiens) (UniProt Q9BXF3); details: Compound concentration 10.0 uM
Peregrin (Homo sapiens) [4] = target: Peregrin (Homo sapiens) (UniProt P55201); details: Compound concentration 10.0 uM
[5] = target: Protein polybromo-1 (Homo sapiens) (UniProt Q86U86); details: Compound concentration 10.0 uM
[6] = target: Protein polybromo-1 (Homo sapiens) (UniProt Q86U86); details: Compound concentration 10.0 uM; remark: listed apart in the source
[7] = target: Bromodomain and WD repeat-containing protein 1 (Homo sapiens) (UniProt Q9NSI6); details: Compound concentration 10.0 uM
[8] = target: Bromodomain and WD repeat-containing protein 3 (Homo sapiens) (UniProt Q6RI45); details: Compound concentration 10.0 uM
[9] = target: Bromodomain adjacent to zinc finger domain protein 2A (Homo sapiens) (UniProt Q9UIF9); details: Compound concentration 10.0 uM
[10] = target: Bromodomain testis-specific protein (Homo sapiens) (UniProt Q58F21); details: Compound concentration 10.0 uM
Peregrin (Homo sapiens) [11] = target: Peregrin (Homo sapiens) (UniProt P55201); details: Compound concentration 10.0 uM; remark: listed apart in the source
[12] = target: E3 ubiquitin-protein ligase TRIM33 (Homo sapiens) (UniProt Q9UPN9); details: Compound concentration 25.0 uM
[13] = target: Protein polybromo-1 (Homo sapiens) (UniProt Q86U86); details: Compound concentration 10.0 uM; remark: listed apart in the source
[14] = target: Nuclear body protein SP140-like protein (Homo sapiens) (UniProt Q9H930); details: Compound concentration 10.0 uM
[15] = target: Bromodomain-containing protein 4 (Homo sapiens) (UniProt O60885); details: Compound concentration 10.0 uM
[16] = target: Bromodomain-containing protein 4 (Homo sapiens) (UniProt O60885); details: Compound concentration 10.0 uM; remark: listed apart in the source
[17] = target: ATPase family AAA domain-containing protein 2 (Homo sapiens) (UniProt Q6PL18); details: Compound concentration 25.0 uM, Protein concentration 225.0 uM
Description: Alphascreen assay. Domain start/stop: Q981-R1108

[18] = target: ATPase family AAA domain-containing protein 2B (Homo sapiens) (UniProt Q9ULI0); details: Compound concentration 10.0 uM
[19] = target: Transcription intermediary factor 1-beta (Homo sapiens) (UniProt Q13263); details: Compound concentration 10.0 uM
[20] = target: Histone acetyltransferase p300 (Homo sapiens) (UniProt Q09472); details: Compound concentration 10.0 uM
Peregrin = Peregrin (Homo sapiens, UniProt P55201); test: Alphascreen assay. Binding to BRPF1B (domain start/stop: M626-G740) by alphascreen assay
[21] = target: Bromodomain and PHD finger-containing protein 3 (Homo sapiens) (UniProt Q9ULD4); details: Compound concentration 10.0 uM
[22] = target: SWI/SNF-related matrix-associated actin-dependent regulator of chromatin subfamily A member 4 (Homo sapiens) (UniProt P51532); details: Compound concentration 10.0 uM
[23] = target: Bromodomain-containing protein 3 (Homo sapiens) (UniProt Q15059); details: Compound concentration 10.0 uM
[24] = target: Bromodomain-containing protein 9 (Homo sapiens) (UniProt Q9H8M2); details: Compound concentration 10.0 uM
[25] = target: CREB-binding protein (Homo sapiens) (UniProt Q92793); details: Compound concentration 10.0 uM
[26] = target: Bromodomain-containing protein 9 (Homo sapiens) (UniProt Q9H8M2); details: Compound concentration 10.0 uM; remark: listed apart in the source
Description: Thermal Shift Assay. Domain start/stop: L14-S134

[27] = target: Bromodomain-containing protein 1 (Homo sapiens) (UniProt O95696); details: Compound concentration 25.0 uM, Protein concentration 50.0 uM
Description: Alphascreen assay. Domain start/stop: E556-A688

[28] = target: Transcription intermediary factor 1-alpha (Homo sapiens) (UniProt O15164); details: Compound concentration 10.0 uM
[29] = target: Transcription initiation factor TFIID subunit 1-like (Homo sapiens) (UniProt Q8IZX4); details: Compound concentration 10.0 uM; remark: listed apart in the source
[30] = target: Chromatin remodeling regulator CECR2 (Homo sapiens) (UniProt Q9BXF3); details: Compound concentration 10.0 uM; remark: listed apart in the source
[31] = target: Transcription intermediary factor 1-alpha (Homo sapiens) (UniProt O15164); details: Compound concentration 10.0 uM; remark: listed apart in the source
[32] = target: Protein polybromo-1 (Homo sapiens) (UniProt Q86U86); details: Compound concentration 10.0 uM; remark: listed apart in the source
[33] = target: Bromodomain-containing protein 2 (Homo sapiens) (UniProt P25440); details: Compound concentration 10.0 uM
[34] = target: Transcription initiation factor TFIID subunit 1 (Homo sapiens) (UniProt P21675); details: Compound concentration 10.0 uM
[35] = target: Transcription initiation factor TFIID subunit 1 (Homo sapiens) (UniProt P21675); details: Compound concentration 10.0 uM; remark: listed apart in the source
[36] = target: Nuclear body protein SP140 (Homo sapiens) (UniProt Q13342); details: Compound concentration 10.0 uM
[37] = target: Protein polybromo-1 (Homo sapiens) (UniProt Q86U86); details: Compound concentration 10.0 uM; remark: listed apart in the source
[38] = target: Nucleosome-remodeling factor subunit BPTF (Homo sapiens) (UniProt Q12830); details: Compound concentration 25.0 uM, Protein concentration 19.0 uM
Description: Alphascreen assay. Domain start/stop: S2791-H2911

[39] = target: Histone-lysine N-methyltransferase ASH1L (Homo sapiens) (UniProt Q9NR48); details: Compound concentration 10.0 uM
[40] = target: PH-interacting protein (Homo sapiens) (UniProt Q8WWQ0); details: Compound concentration 50.0 uM, Protein concentration 0.025 uM
[41] = target: Bromodomain-containing protein 1 (Homo sapiens, UniProt O95696)
[42] = target: Bromodomain testis-specific protein (Homo sapiens) (UniProt Q58F21); details: Compound concentration 10.0 uM; remark: listed apart in the source
[43] = target: Bromodomain adjacent to zinc finger domain protein 2B (Homo sapiens) (UniProt Q9UIF8); details: Compound concentration 10.0 uM
[44] = target: PH-interacting protein (Homo sapiens) (UniProt Q8WWQ0); details: Compound concentration 10.0 uM
[45] = target: Histone-lysine N-methyltransferase 2A (Homo sapiens) (UniProt Q03164); details: Compound concentration 10.0 uM
[46] = target: Protein polybromo-1 (Homo sapiens) (UniProt Q86U86); details: Compound concentration 10.0 uM; remark: listed apart in the source
[47] = target: Nucleosome-remodeling factor subunit BPTF (Homo sapiens) (UniProt Q12830); details: Compound concentration 10.0 uM
[48] = target: Histone acetyltransferase KAT2A (Homo sapiens) (UniProt Q92830); details: Compound concentration 10.0 uM
[49] = target: SWI/SNF-related matrix-associated actin-dependent regulator of chromatin subfamily A member 2 (Homo sapiens) (UniProt P51531); details: Compound concentration 10.0 uM
[50] = target: Bromodomain-containing protein 2 (Homo sapiens) (UniProt P25440); details: Compound concentration 10.0 uM; remark: listed apart in the source
[51] = target: ATPase family AAA domain-containing protein 2 (Homo sapiens) (UniProt Q6PL18); details: Compound concentration 10.0 uM
[52] = target: Bromodomain-containing protein 3 (Homo sapiens) (UniProt Q15059); details: Compound concentration 10.0 uM; remark: listed apart in the source
[53] = target: Histone acetyltransferase KAT2B (Homo sapiens) (UniProt Q92831); details: Compound concentration 10.0 uM
[54] = target: Bromodomain adjacent to zinc finger domain protein 1A (Homo sapiens) (UniProt Q9NRL2); details: Compound concentration 10.0 uM
[55] = target: CREB-binding protein (Homo sapiens) (UniProt Q92793); details: Compound concentration 5.0 uM
Description: Alphascreen assay. Domain start/stop: R1081-G1197

[56] = target: Bromodomain-containing protein 7 (Homo sapiens) (UniProt Q9NPI1); details: Compound concentration 10.0 uM
[57] = target: Tyrosine-protein kinase BAZ1B (Homo sapiens) (UniProt Q9UIG0); details: Compound concentration 10.0 uM
[58] = target: Chromatin remodeling regulator CECR2 (Homo sapiens) (UniProt Q9BXF3); details: Compound concentration 25.0 uM, Protein concentration 19.0 uM

Bromodomain-containing protein 3 (Homo sapiens), sequence (Q15059 2-726 limits assumed): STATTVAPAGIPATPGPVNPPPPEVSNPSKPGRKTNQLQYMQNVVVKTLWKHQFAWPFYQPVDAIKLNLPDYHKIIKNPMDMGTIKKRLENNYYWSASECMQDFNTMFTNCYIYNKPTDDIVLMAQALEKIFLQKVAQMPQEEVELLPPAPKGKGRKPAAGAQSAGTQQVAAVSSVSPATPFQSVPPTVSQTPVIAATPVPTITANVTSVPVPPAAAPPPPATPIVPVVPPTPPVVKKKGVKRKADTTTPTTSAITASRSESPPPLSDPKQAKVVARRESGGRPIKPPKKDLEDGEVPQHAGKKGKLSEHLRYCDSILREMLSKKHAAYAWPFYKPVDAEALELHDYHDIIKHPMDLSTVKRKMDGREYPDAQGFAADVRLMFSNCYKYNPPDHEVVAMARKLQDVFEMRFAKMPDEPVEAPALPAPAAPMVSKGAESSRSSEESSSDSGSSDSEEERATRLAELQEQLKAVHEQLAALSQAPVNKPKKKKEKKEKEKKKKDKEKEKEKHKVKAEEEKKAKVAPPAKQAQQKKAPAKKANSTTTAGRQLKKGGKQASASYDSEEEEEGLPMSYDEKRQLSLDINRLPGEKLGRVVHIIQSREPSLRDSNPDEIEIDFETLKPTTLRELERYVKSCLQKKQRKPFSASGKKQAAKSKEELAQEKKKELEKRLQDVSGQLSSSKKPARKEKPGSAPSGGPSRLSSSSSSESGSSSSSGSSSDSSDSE
CREB-binding protein (Homo sapiens), sequence (Q92793 2-2442 limits assumed): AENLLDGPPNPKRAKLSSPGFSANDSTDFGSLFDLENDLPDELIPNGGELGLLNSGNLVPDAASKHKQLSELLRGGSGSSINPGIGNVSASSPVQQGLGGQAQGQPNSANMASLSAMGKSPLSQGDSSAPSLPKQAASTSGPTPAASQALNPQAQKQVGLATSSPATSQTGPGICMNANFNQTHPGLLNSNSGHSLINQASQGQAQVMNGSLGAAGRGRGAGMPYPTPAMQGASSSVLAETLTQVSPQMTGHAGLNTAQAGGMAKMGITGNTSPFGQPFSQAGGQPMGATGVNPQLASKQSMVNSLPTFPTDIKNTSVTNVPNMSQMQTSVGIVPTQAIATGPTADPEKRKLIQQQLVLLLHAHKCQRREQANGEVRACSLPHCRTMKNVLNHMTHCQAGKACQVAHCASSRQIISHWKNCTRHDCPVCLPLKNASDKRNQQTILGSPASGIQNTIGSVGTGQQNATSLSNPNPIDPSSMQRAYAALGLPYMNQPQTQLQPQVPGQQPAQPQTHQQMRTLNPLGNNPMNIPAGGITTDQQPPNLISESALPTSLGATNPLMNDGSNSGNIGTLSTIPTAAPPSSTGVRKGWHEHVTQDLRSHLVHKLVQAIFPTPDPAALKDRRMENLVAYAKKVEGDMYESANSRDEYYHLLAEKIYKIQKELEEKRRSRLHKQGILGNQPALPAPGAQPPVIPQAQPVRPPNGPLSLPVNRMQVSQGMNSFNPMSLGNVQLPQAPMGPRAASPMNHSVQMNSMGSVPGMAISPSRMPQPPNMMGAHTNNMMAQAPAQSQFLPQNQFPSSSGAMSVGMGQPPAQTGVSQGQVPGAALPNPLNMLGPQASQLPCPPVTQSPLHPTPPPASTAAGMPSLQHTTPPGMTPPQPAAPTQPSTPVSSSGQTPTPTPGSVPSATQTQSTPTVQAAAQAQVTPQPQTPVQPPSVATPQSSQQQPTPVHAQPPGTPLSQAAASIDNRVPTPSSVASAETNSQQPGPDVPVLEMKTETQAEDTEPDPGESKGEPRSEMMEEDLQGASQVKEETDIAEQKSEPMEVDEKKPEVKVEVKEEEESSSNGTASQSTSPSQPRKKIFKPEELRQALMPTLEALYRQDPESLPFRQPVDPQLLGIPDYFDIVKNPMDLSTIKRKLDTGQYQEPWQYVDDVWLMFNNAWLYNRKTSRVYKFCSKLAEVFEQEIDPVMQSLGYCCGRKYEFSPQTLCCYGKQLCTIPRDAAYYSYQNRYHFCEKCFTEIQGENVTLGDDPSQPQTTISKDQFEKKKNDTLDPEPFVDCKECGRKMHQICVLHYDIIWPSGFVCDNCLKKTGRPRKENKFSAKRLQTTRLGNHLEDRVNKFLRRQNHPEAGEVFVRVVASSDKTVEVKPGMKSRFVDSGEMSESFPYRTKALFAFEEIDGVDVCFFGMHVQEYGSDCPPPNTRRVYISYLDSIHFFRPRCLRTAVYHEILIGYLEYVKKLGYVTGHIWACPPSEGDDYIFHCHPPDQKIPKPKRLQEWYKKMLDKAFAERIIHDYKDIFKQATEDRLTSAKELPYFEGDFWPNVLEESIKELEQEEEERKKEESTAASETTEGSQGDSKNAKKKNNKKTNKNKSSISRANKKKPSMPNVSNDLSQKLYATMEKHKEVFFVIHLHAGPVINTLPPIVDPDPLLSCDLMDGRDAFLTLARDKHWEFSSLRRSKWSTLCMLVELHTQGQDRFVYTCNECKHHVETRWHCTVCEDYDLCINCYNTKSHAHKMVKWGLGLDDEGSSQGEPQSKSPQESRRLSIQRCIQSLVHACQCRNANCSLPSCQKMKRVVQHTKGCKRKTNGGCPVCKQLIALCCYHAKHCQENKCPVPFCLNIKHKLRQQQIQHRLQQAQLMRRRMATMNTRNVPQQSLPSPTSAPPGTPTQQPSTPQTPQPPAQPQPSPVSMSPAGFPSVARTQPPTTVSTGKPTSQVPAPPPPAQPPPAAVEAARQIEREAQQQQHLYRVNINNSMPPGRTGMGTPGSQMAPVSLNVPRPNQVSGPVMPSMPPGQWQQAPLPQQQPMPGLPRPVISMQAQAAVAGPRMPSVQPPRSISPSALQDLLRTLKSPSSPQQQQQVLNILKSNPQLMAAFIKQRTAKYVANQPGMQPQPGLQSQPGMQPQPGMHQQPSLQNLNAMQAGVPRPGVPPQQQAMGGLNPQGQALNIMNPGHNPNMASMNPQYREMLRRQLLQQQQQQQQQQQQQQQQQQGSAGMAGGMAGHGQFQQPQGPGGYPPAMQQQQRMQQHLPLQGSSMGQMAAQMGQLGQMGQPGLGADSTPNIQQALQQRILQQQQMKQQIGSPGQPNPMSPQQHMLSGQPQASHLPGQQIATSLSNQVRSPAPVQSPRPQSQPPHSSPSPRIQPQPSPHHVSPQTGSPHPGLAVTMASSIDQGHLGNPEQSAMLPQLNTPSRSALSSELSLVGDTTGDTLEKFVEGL
Peregrin (Homo sapiens), sequence (P55201 whole entry): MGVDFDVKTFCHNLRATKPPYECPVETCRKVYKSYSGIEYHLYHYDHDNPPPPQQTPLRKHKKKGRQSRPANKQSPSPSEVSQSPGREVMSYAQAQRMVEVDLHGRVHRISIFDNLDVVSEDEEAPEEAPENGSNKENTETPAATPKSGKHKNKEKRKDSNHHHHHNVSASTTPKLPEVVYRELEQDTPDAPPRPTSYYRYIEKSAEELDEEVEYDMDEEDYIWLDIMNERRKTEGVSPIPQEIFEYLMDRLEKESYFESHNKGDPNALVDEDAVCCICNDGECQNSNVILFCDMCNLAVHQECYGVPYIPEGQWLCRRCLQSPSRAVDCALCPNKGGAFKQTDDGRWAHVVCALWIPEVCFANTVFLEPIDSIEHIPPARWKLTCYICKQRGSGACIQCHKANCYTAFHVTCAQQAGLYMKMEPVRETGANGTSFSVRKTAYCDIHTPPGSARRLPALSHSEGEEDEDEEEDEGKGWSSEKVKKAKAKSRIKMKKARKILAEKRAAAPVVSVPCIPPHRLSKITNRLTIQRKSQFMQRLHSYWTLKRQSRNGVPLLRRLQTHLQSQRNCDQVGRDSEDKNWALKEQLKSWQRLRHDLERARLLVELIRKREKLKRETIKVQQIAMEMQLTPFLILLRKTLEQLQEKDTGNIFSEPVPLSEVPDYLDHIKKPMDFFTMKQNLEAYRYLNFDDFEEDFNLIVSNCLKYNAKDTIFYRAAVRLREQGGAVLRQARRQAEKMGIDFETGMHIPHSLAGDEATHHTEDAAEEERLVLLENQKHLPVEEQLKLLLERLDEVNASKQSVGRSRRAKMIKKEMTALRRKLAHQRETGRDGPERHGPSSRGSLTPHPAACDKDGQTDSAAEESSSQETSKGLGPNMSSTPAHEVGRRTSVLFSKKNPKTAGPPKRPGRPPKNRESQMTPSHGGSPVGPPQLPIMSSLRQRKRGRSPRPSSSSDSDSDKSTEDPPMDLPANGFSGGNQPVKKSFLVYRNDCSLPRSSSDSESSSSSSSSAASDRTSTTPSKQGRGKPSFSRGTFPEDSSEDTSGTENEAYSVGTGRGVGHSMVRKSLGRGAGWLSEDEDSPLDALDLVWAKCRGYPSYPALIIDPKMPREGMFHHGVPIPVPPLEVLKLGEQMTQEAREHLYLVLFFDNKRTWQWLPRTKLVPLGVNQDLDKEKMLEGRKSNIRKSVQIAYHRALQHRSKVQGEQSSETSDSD
Bromodomain-containing protein 9 (Homo sapiens), sequence (Q9H8M2 whole entry): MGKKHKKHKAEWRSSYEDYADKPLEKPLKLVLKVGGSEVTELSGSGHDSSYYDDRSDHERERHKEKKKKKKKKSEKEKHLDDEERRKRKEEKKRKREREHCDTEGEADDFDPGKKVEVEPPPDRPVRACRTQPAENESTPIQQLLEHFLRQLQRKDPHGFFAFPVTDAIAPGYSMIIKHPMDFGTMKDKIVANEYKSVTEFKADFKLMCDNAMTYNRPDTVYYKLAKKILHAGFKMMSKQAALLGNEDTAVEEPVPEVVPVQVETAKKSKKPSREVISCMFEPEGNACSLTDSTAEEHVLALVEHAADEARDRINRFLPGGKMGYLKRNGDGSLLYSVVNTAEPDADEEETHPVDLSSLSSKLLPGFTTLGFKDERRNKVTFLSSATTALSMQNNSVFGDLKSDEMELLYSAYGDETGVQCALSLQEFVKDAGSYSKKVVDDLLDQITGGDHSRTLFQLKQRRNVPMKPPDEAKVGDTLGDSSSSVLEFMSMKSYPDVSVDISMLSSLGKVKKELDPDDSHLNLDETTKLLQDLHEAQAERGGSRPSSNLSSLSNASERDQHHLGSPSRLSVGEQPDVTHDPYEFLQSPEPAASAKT
Peregrin, sequence (P55201 whole entry): as the sequence (P55201 whole entry) above

COc1cc(C#N)ccc1S(=O)(=O)Nc1ccc2c(c1)cc(C)c(=O)n2C
ΔTm [1]: 0.81 °C | ΔTm [2]: 5.67 °C | ΔTm [3]: 0.42 °C | ΔTm (Peregrin (Homo sapiens) [4]): 12.3 °C and 10.8 °C | ΔTm [5]: 0.79 °C | ΔTm [6]: 0.3 °C | ΔTm [7]: 0.74 °C | ΔTm [8]: 2.08 °C | ΔTm [9]: -0.24 °C | ΔTm [10]: 0.32 °C | ΔTm (Peregrin (Homo sapiens) [11]): 1.19 °C | inhibition [12]: 9.82% | ΔTm [13]: 0.79 °C | ΔTm [14]: 1.35 °C | ΔTm [15]: 0.93 °C and 1.25 °C | ΔTm [16]: 0.14 °C | inhibition [17]: 4.03% | ΔTm [18]: -0.01 °C | ΔTm [19]: 1.21 °C | ΔTm [20]: 1.15 °C | IC50 (Peregrin): 47.2 nM | ΔTm [21]: 5.43 °C | ΔTm [22]: 0.38 °C | ΔTm [23]: 0.83 °C | ΔTm [24]: 4.57 °C and 3.61 °C | ΔTm [25]: 0.49 °C and 1.24 °C | ΔTm [26]: 5.4 °C | inhibition [27]: 99.7% | ΔTm [28]: 2.11 °C and 2.01 °C | ΔTm [29]: 0.72 °C | ΔTm [30]: 0.43 °C | ΔTm [31]: 1.64 °C | ΔTm [32]: 0.3 °C | ΔTm [33]: 0.11 °C | ΔTm [34]: 0.4 °C | ΔTm [35]: 0.55 °C | ΔTm [36]: 1.1 °C | ΔTm [37]: 0.5 °C | inhibition [38]: 49.2% | ΔTm [39]: 0.15 °C | inhibition [40]: 6.61% and 8.15% | IC50 [41]: 315 nM | ΔTm [42]: 0.25 °C | ΔTm [43]: 0.1 °C | ΔTm [44]: -2.61 °C | ΔTm [45]: 0.47 °C | ΔTm [46]: 0.58 °C | ΔTm [47]: 0.31 °C | ΔTm [48]: 0.45 °C | ΔTm [49]: 0.58 °C | ΔTm [50]: 0.62 °C | ΔTm [51]: -0.43 °C | ΔTm [52]: 0.17 °C | ΔTm [53]: 0.53 °C | ΔTm [54]: 0.38 °C | inhibition [55]: 4.5% | ΔTm [56]: 6.81 °C | ΔTm [57]: 0.4 °C | inhibition [58]: 35.4%
